# Measured values taken from patent publication US20260078103A1, “ISOQUINOLONES AS PI3K INHIBITORS” (OnKure, Inc., priority 2022, published 2026).
# pEC50, pIC50: −log10 of the molar value.
# Test system: T47D cells expressing mutant PI3Ka (H1047R)
# Assay: In vitro cell proliferation, T47D cells (CellTiter-Glo)
# Assay type: cell-based
# Conditions: Homo sapiens, T47D, 72 h, inhibition of proliferation, read-out: Avg T-47D EC50
# In short: (§1)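 1,500 cells/well seeded onto pre-stamped 10-pt dilution plates; T47D in RPMI + 10% FBS + insulin 0.2 units/mL, SKBR3 in McCoys 5a + 10% FBS. 72 h, 37 °C, 5% CO2. CTG readout. 0% = 0.1% DMSO, 100% = 10 uM Alpelisib; sigmoidal fit gives EC50.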
row,SMILES,pEC50
1,C[C@@H](Nc1cccc(F)c1C(=O)O)c1cc(F)cc2c(=O)n(C)c(N3CCN(c4nccs4)CC3)cc12 [Example 429],6.30 to 9.00
2,Cc1cc([C@@H](C)Nc2ccccc2C(=O)O)c2cc(N3CCn4cc(C(F)(F)F)nc4C3)n(C)c(=O)c2c1 [Example 432],5.70 to 6.30
3,Cc1cc([C@@H](C)Nc2ccccc2C(=O)O)c2cc(N3CCn4cc(C)nc4C3)n(C)c(=O)c2c1 [Example 434],6.30 to 9.00
4,Cc1cc([C@@H](C)Nc2ccccc2C(=O)O)c2cc(N3CCn4nncc4C3)n(C)c(=O)c2c1 [Example 436],4.82 to 5.70
5,Cc1ncc(F)cc1-c1ncc(-c2cc3c([C@@H](C)Nc4cccc(F)c4C(=O)O)cc(F)cc3c(=O)n2C)cc1F [Example 440],6.30 to 9.00
6,Cc1cc([C@@H](C)Nc2ccccc2C(=O)O)c2cc(N3CCn4c(nnc4C4CC4)C3)n(C)c(=O)c2c1 [Example 445],4.82 to 5.70

# Same assay, conditions: inhibition of proliferation, 72 hours, read-out: Avg T-47D EC50
row,SMILES,pEC50
1,Cc1ncncc1N1CCN(c2cc3c([C@@H](C)Nc4cccc(F)c4C(=O)O)cc(F)cc3c(=O)n2C)CC1 [Example 397],6.30 to 9.00
2,CC(Nc1cccc(F)c1C(=O)O)c1cc(F)cc2c(=O)n(C)c(-c3ccc(OC4CC(F)C4)nc3)cc12 (stereo not shown) [Example 407],6.30 to 9.00
3,Cc1ccc(C2CN(c3cc4c([C@@H](C)Nc5cccc(F)c5C(=O)O)cc(F)cc4c(=O)n3C)C2)cn1 [Example 409],5.70 to 6.30
4,C[C@@H](Nc1cccc(F)c1C(=O)O)c1cc(F)cc2c(=O)n(C)c(N3CC(C(F)(F)F)C3)cc12 [Example 413],4.82 to 5.70
5,C[C@@H](Nc1cccc(F)c1C(=O)O)c1cc(F)cc2c(=O)n(C)c(N3CCC(F)(F)C3)cc12 [Example 414],6.30 to 9.00
6,Cc1cc([C@@H](C)Nc2ccccc2C(=O)O)c2cc(N3CCn4c(cnc4C(F)(F)F)C3)n(C)c(=O)c2c1 [Example 433],5.70 to 6.30
7,Cc1cc([C@@H](C)Nc2ccccc2C(=O)O)c2cc(N3CCn4c(nnc4C(F)(F)F)C3)n(C)c(=O)c2c1 [Example 435],4.82 to 5.70
8,Cc1cc([C@@H](C)Nc2cccc(F)c2C(=O)O)c2cc(N3CCn4c(cnc4C)C3)n(C)c(=O)c2c1 [Example 438],< 4.82
9,Cc1cc([C@@H](C)Nc2cccc(F)c2C(=O)O)c2cc(N3CCc4c(cnn4C)C3)n(C)c(=O)c2c1 [Example 439],5.70 to 6.30
10,C[C@@H](Nc1cccc(F)c1C(=O)O)c1cc(F)cc2c(=O)n(C)c(-c3ccc(OCC(F)(F)F)nc3)cc12 [Example 441],5.70 to 6.30

# Test system: phosphorylation of AKT (pAKT) in SKBR3 cells express WT PI3Ka
# Assay: In vitro cell pAKT (Ser473) HTRF, SKBR3 cells
# Assay type: cell-based
# Conditions: Homo sapiens, SK-BR-3, 6 h, cellular pAKT
# In short: (§2)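 T47D cells (RPMI, 10% FBS, 0.2 units/mL insulin) or SKBR3 cells (McCoy's 5a, 10% FBS) were seeded onto 10-point compound dilutions and incubated 6 h at 37 °C. After lysis, pAKT was detected overnight by HTRF (Eu cryptate/d2). IC50 was fitted from % inhibition relative to 0.1% DMSO and 10 uM alpelisib controls.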
row,SMILES,pIC50
1,C[C@@H](Nc1cccc(F)c1C(=O)O)c1cc(F)cc2c(=O)n(C)c(N3CCN(c4nccs4)CC3)cc12 [Example 429],< 4.82
2,Cc1cc([C@@H](C)Nc2ccccc2C(=O)O)c2cc(N3CCn4cc(C(F)(F)F)nc4C3)n(C)c(=O)c2c1 [Example 432],< 4.82
3,Cc1cc([C@@H](C)Nc2ccccc2C(=O)O)c2cc(N3CCn4cc(C)nc4C3)n(C)c(=O)c2c1 [Example 434],< 4.82
4,Cc1cc([C@@H](C)Nc2ccccc2C(=O)O)c2cc(N3CCn4nncc4C3)n(C)c(=O)c2c1 [Example 436],< 4.82
5,Cc1ncc(F)cc1-c1ncc(-c2cc3c([C@@H](C)Nc4cccc(F)c4C(=O)O)cc(F)cc3c(=O)n2C)cc1F [Example 440],4.82 to 5.70
6,Cc1cc([C@@H](C)Nc2ccccc2C(=O)O)c2cc(N3CCn4c(nnc4C4CC4)C3)n(C)c(=O)c2c1 [Example 445],< 4.82

# Same assay, conditions: cellular pAKT, 6 hours
row,SMILES,pIC50
1,Cc1ncncc1N1CCN(c2cc3c([C@@H](C)Nc4cccc(F)c4C(=O)O)cc(F)cc3c(=O)n2C)CC1 [Example 397],< 4.82
2,CC(Nc1cccc(F)c1C(=O)O)c1cc(F)cc2c(=O)n(C)c(-c3ccc(OC4CC(F)C4)nc3)cc12 (stereo not shown) [Example 407],< 4.82
3,Cc1ccc(C2CN(c3cc4c([C@@H](C)Nc5cccc(F)c5C(=O)O)cc(F)cc4c(=O)n3C)C2)cn1 [Example 409],< 4.82
4,C[C@@H](Nc1cccc(F)c1C(=O)O)c1cc(F)cc2c(=O)n(C)c(N3CC(C(F)(F)F)C3)cc12 [Example 413],< 4.82
5,C[C@@H](Nc1cccc(F)c1C(=O)O)c1cc(F)cc2c(=O)n(C)c(N3CCC(F)(F)C3)cc12 [Example 414],< 4.82
6,Cc1cc([C@@H](C)Nc2ccccc2C(=O)O)c2cc(N3CCn4c(cnc4C(F)(F)F)C3)n(C)c(=O)c2c1 [Example 433],< 4.82
7,Cc1cc([C@@H](C)Nc2ccccc2C(=O)O)c2cc(N3CCn4c(nnc4C(F)(F)F)C3)n(C)c(=O)c2c1 [Example 435],< 4.82
8,Cc1cc([C@@H](C)Nc2cccc(F)c2C(=O)O)c2cc(N3CCn4c(cnc4C)C3)n(C)c(=O)c2c1 [Example 438],< 4.82
9,Cc1cc([C@@H](C)Nc2cccc(F)c2C(=O)O)c2cc(N3CCc4c(cnn4C)C3)n(C)c(=O)c2c1 [Example 439],< 4.82
10,C[C@@H](Nc1cccc(F)c1C(=O)O)c1cc(F)cc2c(=O)n(C)c(-c3ccc(OCC(F)(F)F)nc3)cc12 [Example 441],< 4.82

# Test system: phosphorylation of AKT (pAKT) in T47D cells expressing mutant PI3Ka (H1047R)
# Assay: In vitro cell pAKT (Ser473) HTRF, T47D cells
# Assay type: cell-based
# Conditions: Homo sapiens, T47D, 6 h, cellular pAKT, T47D cells, mutant PI3Ka (H1047R), 6 hours; read-out: Avg T-47D IC50
# In short: as §2
row,SMILES,pIC50
1,C[C@@H](Nc1cccc(F)c1C(=O)O)c1cc(F)cc2c(=O)n(C)c(N3CCN(c4nccs4)CC3)cc12 [Example 429],6.30 to 9.00
2,Cc1cc([C@@H](C)Nc2ccccc2C(=O)O)c2cc(N3CCn4cc(C(F)(F)F)nc4C3)n(C)c(=O)c2c1 [Example 432],6.30 to 9.00
3,Cc1cc([C@@H](C)Nc2ccccc2C(=O)O)c2cc(N3CCn4cc(C)nc4C3)n(C)c(=O)c2c1 [Example 434],6.30 to 9.00
4,Cc1cc([C@@H](C)Nc2ccccc2C(=O)O)c2cc(N3CCn4nncc4C3)n(C)c(=O)c2c1 [Example 436],4.82 to 5.70
5,Cc1ncc(F)cc1-c1ncc(-c2cc3c([C@@H](C)Nc4cccc(F)c4C(=O)O)cc(F)cc3c(=O)n2C)cc1F [Example 440],6.30 to 9.00
6,Cc1cc([C@@H](C)Nc2ccccc2C(=O)O)c2cc(N3CCn4c(nnc4C4CC4)C3)n(C)c(=O)c2c1 [Example 445],4.82 to 5.70

# Same assay, conditions: cellular pAKT, T47D cells, mutant PI3Ka (H1047R), 6 hours; read-out: Avg T-47D IC50
row,SMILES,pIC50
1,Cc1ncncc1N1CCN(c2cc3c([C@@H](C)Nc4cccc(F)c4C(=O)O)cc(F)cc3c(=O)n2C)CC1 [Example 397],5.70 to 6.30
2,CC(Nc1cccc(F)c1C(=O)O)c1cc(F)cc2c(=O)n(C)c(-c3ccc(OC4CC(F)C4)nc3)cc12 (stereo not shown) [Example 407],6.30 to 9.00
3,Cc1ccc(C2CN(c3cc4c([C@@H](C)Nc5cccc(F)c5C(=O)O)cc(F)cc4c(=O)n3C)C2)cn1 [Example 409],5.70 to 6.30
4,C[C@@H](Nc1cccc(F)c1C(=O)O)c1cc(F)cc2c(=O)n(C)c(N3CC(C(F)(F)F)C3)cc12 [Example 413],4.82 to 5.70
5,C[C@@H](Nc1cccc(F)c1C(=O)O)c1cc(F)cc2c(=O)n(C)c(N3CCC(F)(F)C3)cc12 [Example 414],6.30 to 9.00
6,Cc1cc([C@@H](C)Nc2ccccc2C(=O)O)c2cc(N3CCn4c(cnc4C(F)(F)F)C3)n(C)c(=O)c2c1 [Example 433],6.30 to 9.00
7,Cc1cc([C@@H](C)Nc2ccccc2C(=O)O)c2cc(N3CCn4c(nnc4C(F)(F)F)C3)n(C)c(=O)c2c1 [Example 435],4.82 to 5.70
8,Cc1cc([C@@H](C)Nc2cccc(F)c2C(=O)O)c2cc(N3CCn4c(cnc4C)C3)n(C)c(=O)c2c1 [Example 438],< 4.82
9,Cc1cc([C@@H](C)Nc2cccc(F)c2C(=O)O)c2cc(N3CCc4c(cnn4C)C3)n(C)c(=O)c2c1 [Example 439],5.70 to 6.30
10,C[C@@H](Nc1cccc(F)c1C(=O)O)c1cc(F)cc2c(=O)n(C)c(-c3ccc(OCC(F)(F)F)nc3)cc12 [Example 441],6.30 to 9.00

# Test system: SKBR3 cells express WT PI3Ka
# Assay: In vitro cell proliferation, SKBR3 cells (CellTiter-Glo)
# Assay type: cell-based
# Conditions: Homo sapiens, SK-BR-3, 72 h, inhibition of proliferation
# In short: as §1
row,SMILES,pEC50
1,C[C@@H](Nc1cccc(F)c1C(=O)O)c1cc(F)cc2c(=O)n(C)c(N3CCN(c4nccs4)CC3)cc12 [Example 429],< 4.82
2,Cc1cc([C@@H](C)Nc2ccccc2C(=O)O)c2cc(N3CCn4cc(C(F)(F)F)nc4C3)n(C)c(=O)c2c1 [Example 432],< 4.82
3,Cc1cc([C@@H](C)Nc2ccccc2C(=O)O)c2cc(N3CCn4cc(C)nc4C3)n(C)c(=O)c2c1 [Example 434],< 4.82
4,Cc1cc([C@@H](C)Nc2ccccc2C(=O)O)c2cc(N3CCn4nncc4C3)n(C)c(=O)c2c1 [Example 436],< 4.82
5,Cc1ncc(F)cc1-c1ncc(-c2cc3c([C@@H](C)Nc4cccc(F)c4C(=O)O)cc(F)cc3c(=O)n2C)cc1F [Example 440],< 4.82
6,Cc1cc([C@@H](C)Nc2ccccc2C(=O)O)c2cc(N3CCn4c(nnc4C4CC4)C3)n(C)c(=O)c2c1 [Example 445],< 4.82

# Same assay, conditions: inhibition of proliferation, 72 hours
row,SMILES,pEC50
1,Cc1ncncc1N1CCN(c2cc3c([C@@H](C)Nc4cccc(F)c4C(=O)O)cc(F)cc3c(=O)n2C)CC1 [Example 397],< 4.82
2,CC(Nc1cccc(F)c1C(=O)O)c1cc(F)cc2c(=O)n(C)c(-c3ccc(OC4CC(F)C4)nc3)cc12 (stereo not shown) [Example 407],< 4.82
3,Cc1ccc(C2CN(c3cc4c([C@@H](C)Nc5cccc(F)c5C(=O)O)cc(F)cc4c(=O)n3C)C2)cn1 [Example 409],< 4.82
4,C[C@@H](Nc1cccc(F)c1C(=O)O)c1cc(F)cc2c(=O)n(C)c(N3CC(C(F)(F)F)C3)cc12 [Example 413],< 4.82
5,C[C@@H](Nc1cccc(F)c1C(=O)O)c1cc(F)cc2c(=O)n(C)c(N3CCC(F)(F)C3)cc12 [Example 414],< 4.82
6,Cc1cc([C@@H](C)Nc2ccccc2C(=O)O)c2cc(N3CCn4c(cnc4C(F)(F)F)C3)n(C)c(=O)c2c1 [Example 433],< 4.82
7,Cc1cc([C@@H](C)Nc2ccccc2C(=O)O)c2cc(N3CCn4c(nnc4C(F)(F)F)C3)n(C)c(=O)c2c1 [Example 435],< 4.82
8,Cc1cc([C@@H](C)Nc2cccc(F)c2C(=O)O)c2cc(N3CCn4c(cnc4C)C3)n(C)c(=O)c2c1 [Example 438],< 4.82
9,Cc1cc([C@@H](C)Nc2cccc(F)c2C(=O)O)c2cc(N3CCc4c(cnn4C)C3)n(C)c(=O)c2c1 [Example 439],< 4.82
10,C[C@@H](Nc1cccc(F)c1C(=O)O)c1cc(F)cc2c(=O)n(C)c(-c3ccc(OCC(F)(F)F)nc3)cc12 [Example 441],< 4.82
